From article PMC6010079, “Inhibition of dengue virus replication by novel inhibitors of RNA-dependent RNA polymerase and protease activities” (Journal of Enzyme Inhibition and Medicinal Chemistry, 2017)
Several values for one entry are separate records, joined by “and”; a condition that tells them apart may be missing. Equal entries are not always repeated. Where two headings read alike, the source gives them in different places.

Key:
[1] = system: DENV-2; experiment: Anti-DENV RNA activity: RT-qPCR of DENV RNA in DENV-2-infected Huh-7 cells; type: cell-based, DENV-2 (DENV type-2 strain 16681); conditions: for SI (selectivity index, CC50/EC50 ratio): CC50 in Huh-7 / EC50 DENV-2 RNA
Description: Huh-7 cells were seeded in 24-well plate and infected DENV at an MOI of 0.2 for 2 h and followed by test compound treatment at concentration of 0, 1, 5, 10, 25, 50 and 100 µM for 3 days. The total cellular RNA was harvested by RNA extraction kit[32] following manufacturer’s instrument. DENV RNA and cellular mRNA levels were determined by quantitative real-time reverse-transcription polymerase chain reaction (RT-qPCR) with specific primers. The DENV RNA level was normalised by cellular glyceraldehydes-3-phosphate dehydrogenase (GAPDH) mRNA level. The relative DENV RNA level was calculated by StepOne™ Software v2.2.2 (Applied Biosystems, Foster City, CA, USA) following normalisation of cellular glyceraldehydes-3-phosphate dehydrogenase (GAPDH) mRNA level. The zero dose was defined as 100%. The EC50 values were calculated from non-linear regression curve fitting using GraphPad Prism7 software (San Diego, CA, USA). Results were obtained from three independent experiments.

[2] = Cell cytotoxicity assay (MTS); type: cell-based; conditions: human, Huh-7 cells, 3 days incubation, read-out: CC50 (half maximal cytotoxicity concentration)
Description: The Huh-7 cells were seeded in 96-well and treated with test compound at concentration of 0, 10, 25, 50, 100, 150 and 200 µM. After 3 days incubation, the cell viability was determined by CellTiter 96 AQueous One Solution Cell Proliferation Assay (MTS assay) as previously reported. Briefly, the MTS assay buffer was added to the cultured plate following removal of the culture medium. After 2 h of incubation at 37 °C, the absorbance at 492 nm was measured. The cell viability was calculated from non-linear regression curve fitting using GraphPad Prism7. The zero dose was defined as 100%. Results were obtained from three independent experiments.

[3] = biological target: T1, DENV-2 NS3 protease (Dengue virus type 2, UniProt P29990); experiment: Cell-based DENV protease reporter assay (pEG(MITA)SEAP + pcDNA-NS2B-GSG-NS3-Myc in Huh-7 cells); conditions: 3 days treatment, read-out: Cell-based EC50 ± SD (DENV-2 NS3 protease)
T1 construct: DENV protease expression vector pcDNA-NS2B-GSG-NS3-Myc; expressed in transfected cells; host or cells: Huh-7
Description: (§1) For cell-based activity assay, the Huh-7 cells were cotransfected with 0.5 µg of pEG(MITA)SEAP reporter vector and DENV protease expression vector pcDNA-NS2B-GSG-NS3-Myc followed by compound treatment for 3 days. The SEAP activity was analysed by Phospha-Light SEAP Reporter Gene Assay System[40]. The enzyme-based experiment was performed as previously described. Briefly, the 7-amino-4-methylcoumarin (AMC) fluorophore-linked peptide substrate Boc-GRR-AMC[41] and purified DENV NS2B/NS3pro protein were used to analyse DENV NS2B/NS3 protease activity. The 100 nM DENV NS2B/NS3pro protein was incubated with 1, 5 or 10 µM tested compound and 10 µM Boc-GRR-AMC in cleavage buffer (200 mM Tris [pH 9.5], 20% glycerol) for 30 min at 25 °C. The fluorescence signal was detected at excitation wavelength of 380 nm and emission wavelength of 465 nm, respectively.

[4] = biological target: T2, DENV NS2B/NS3pro protein (Dengue virus type 2, UniProt P29990); experiment: Enzyme-based DENV NS2B/NS3 protease assay (Boc-GRR-AMC substrate); type: biochemical; conditions: Enzyme-based EC50 ± SD (DENV-2 NS3 protease), 100 nM NS2B/NS3pro, 10 µM Boc-GRR-AMC, 30 min, 25 °C
T2 construct: made in house; host or cells: Escherichia coli BL21 (DE3)
Description: The DENV NS2B/NS3pro purification was performed as previously described. Briefly, the pET24b-NS2B-NS3pro plasmid was transformed into competent Escherichia coli BL21 (DE3) and grew in kanamycin (50 µg/mL)-containing LB at 26 °C until OD600 nm reached 0.6. The isopropyl-β-D-thiogalactopyranose was added into the bacterial culture at 0.5 mM for protein induction. After 12-h incubation, cells were collected and subjected to protein purification following previous description.
as §1

[5] = system: DENV-2; experiment: Anti-DENV activity in DENV-infected ICR-suckling mouse model; type: in vivo; conditions: 6-day-old ICR-suckling mice; for Clinical scores and body weight (DENV-induced pathology): 2.5 × 10^5 pfu DENV-2, within 4 to 6 dpi; for Survival rate: DENV-2, compared to untreated mice
From the text: Breeder ICR mice were purchased from BioLasco Taiwan Co. Ltd. The experimental protocol was approved by the Animal Research Committee of Kaohsiung Medical University of Taiwan (IACUC, protocol number 102177). All mice received humane care and fed with standard rodent chew and water ad libitum. Mice were kept under a standard laboratory condition following the Animal Use Protocol of Kaohsiung Medical University. The 6-day-old ICR-suckling mice were intracerebrally injected with DENV-2 followed by intracerebrally injecting saline or test compound at 1, 3, 5 days postinfection (dpi). […] The body weight, clinical scores and survival rate were recorded every day. The mice were sacrificed at 6 dpi.
To access the antiviral activity of compound 3 and 4in vivo, 6-day-old ICR-suckling mice were inoculated with 2.5 × 10^5 pfu of DENV-2 by intracerebral injection and then were administered with compound 3 (10 mg/kg) or 4 (1 mg/kg) by intracerebral injection at 1-, 3- and 5-day postinfection (dpi); inoculation of heat-inactivated DENV-2 (iDENV) served as a mock control.

[6] = biological target: T3, DENV-2 NS5 RdRp (Dengue virus type 2, UniProt P29990); experiment: Cell-based RdRp reporter assay (p(+)RLuc-(–)DV-UTRΔC-FLuc + pcDNA-NS5-Myc in Huh-7 cells); conditions: 3 days treatment
Description: (§2) The cell-based experiments were performed as previously described. Briefly, the Huh-7 cells were transfected with 0.5 µg of p(+)RLuc-(–)DV-UTRΔC-FLuc and DENV NS5 expression vector pcDNA-NS5-Myc followed by compound treatment for 3 days. The RLuc and FLuc activities were analysed by Dual-Glo Luciferase Assay System[37]. The enzyme-based fluorescence-based alkaline phosphatase-coupled polymerase assay (FAPA) was performed as previously described. Briefly, the template was amplified from the cDNA of DENV-2 minus strand 3′-UTR and its RNA was synthesised by the T7 Megascript kit[38]. The 100 nM DENV NS5 protein was incubated with 1, 5 or 10 µM test compound, 100 nM (−) 3′-UTR RNA, 20 µM CTP, GTP, UTP and 20 µM BBT-ATP (Jena Bioscience) in a total volume of 30 µL in assay buffer (50 mM Tris-HCl, pH 7.5, 10 mM KCl, 1 mM MgCl2, 0.3 mM MnCl2, 0.001% Triton X-100 and 10 µM cysteine) at 25 °C for 60 min. The 30 µL of 2.5× stop buffer (200 mM NaCl, 25 mM MgCl2, 1.5 M diethanolamine, pH 10) with 25 nM calf intestinal alkaline phosphatase (Promega) was added to the reaction after 60-min incubation. The fluorescence signal was measured at excitation wavelength of 422 nm and emission wavelength of 566 nm, respectively.

[7] = biological target: T3, DENV-2 NS5 RdRp; experiment: Enzyme-based RdRp activity assay (FAPA); type: biochemical; set-up: the supernatant containing His-tagged DENV-2 NS5 protein; His; made in house; host or cells: Sf9 insect cells (baculovirus vAc-DENV-NS5); conditions: 100 nM DENV NS5 protein, (−) 3′UTR RNA, BBT-ATP, 25 °C, 60 min
Description: The DENV-2 NS5 protein purification was performed as previously described. Briefly, Sf9 cells were infected by the recombinant baculovirus vAc-DENV-NS5 at an MOI of 10 for 3 days. The cells were pelleted by centrifugation at 1000×g for 5 min at 4 °C and washed twice with phosphate-buffered saline (PBS). The cells were suspended in 5 mL of binding buffer (20 mM sodium phosphate, pH 7.5, 300 mM NaCl, 20 mM imidazole) containing protease inhibitor cocktail, and then disrupted by sonication. After centrifugation, the supernatant containing His-tagged DENV-2 NS5 protein was subjected to metal affinity chromatography employing the AKTA prime protein purification system. The eluted DENV-2 NS5 protein was concentrated by an Amicon Ultra-15 30 k centrifugal filter device[36] and then dialysed against PBS overnight at 4 °C.
as §2

[8] = Dengue virus, DENV2, Huh-7, 72 h, read-out: EC50 ± SD (DENV-2 RNA), Huh-7 cells infected with DENV-2 at MOI 0.2, 3 days treatment, qRT-PCR with primers targeting NS5, normalised to GAPDH
[9] = 1 mg/kg intracerebral injection at 1, 3, 5 dpi
[10] = Dengue virus, DENV2, Huh-7, 72 h, Huh-7 cells infected with DENV-2 at MOI 0.2, 3 days treatment, qRT-PCR with primers targeting NS5, normalised to GAPDH, read-out: EC50 ± SD (DENV-2 RNA)
[11] = Huh-7 cells infected with DENV-2 at MOI 0.2, 3 days treatment, qRT-PCR with primers targeting NS5, normalised to GAPDH, read-out: EC50 ± SD (DENV-2 RNA)
[12] = Cell-based EC50 ± SD (DENV-2 NS5 RdRp)
[13] = read-out: Enzyme-based EC50 ± SD (DENV-2 NS5 RdRp)
[14] = read-out: EC50 ± SD (DENV-2 RNA), Huh-7 cells infected with DENV-2 at MOI 0.2, 3 days treatment, qRT-PCR with primers targeting NS5, normalised to GAPDH
[15] = 10 mg/kg intracerebral injection at 1, 3, 5 dpi

T3 sequence (P29990 2492-3391): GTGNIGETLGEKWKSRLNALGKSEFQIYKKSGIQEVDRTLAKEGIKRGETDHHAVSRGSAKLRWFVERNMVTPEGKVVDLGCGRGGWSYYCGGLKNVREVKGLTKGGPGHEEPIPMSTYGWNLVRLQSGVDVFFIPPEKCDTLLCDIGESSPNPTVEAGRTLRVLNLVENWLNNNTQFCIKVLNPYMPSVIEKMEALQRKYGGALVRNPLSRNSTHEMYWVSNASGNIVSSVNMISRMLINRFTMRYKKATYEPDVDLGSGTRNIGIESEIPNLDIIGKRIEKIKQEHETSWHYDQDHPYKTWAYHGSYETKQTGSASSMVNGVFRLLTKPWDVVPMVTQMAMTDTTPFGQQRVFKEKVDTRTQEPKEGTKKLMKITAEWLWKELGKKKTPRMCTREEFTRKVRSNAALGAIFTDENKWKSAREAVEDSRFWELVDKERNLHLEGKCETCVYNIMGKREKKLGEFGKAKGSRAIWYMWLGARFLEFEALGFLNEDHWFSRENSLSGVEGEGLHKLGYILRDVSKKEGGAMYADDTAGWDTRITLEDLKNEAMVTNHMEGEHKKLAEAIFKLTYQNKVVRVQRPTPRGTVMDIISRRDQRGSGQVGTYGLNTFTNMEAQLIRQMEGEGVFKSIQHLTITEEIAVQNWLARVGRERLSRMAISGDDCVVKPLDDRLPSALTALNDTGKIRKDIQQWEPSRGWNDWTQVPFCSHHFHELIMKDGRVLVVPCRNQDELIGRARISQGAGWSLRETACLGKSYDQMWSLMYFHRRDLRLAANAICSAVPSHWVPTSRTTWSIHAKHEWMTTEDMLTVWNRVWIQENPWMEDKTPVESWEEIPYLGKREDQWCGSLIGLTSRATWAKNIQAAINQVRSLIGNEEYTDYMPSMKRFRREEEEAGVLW
T1 sequence (P29990 1476-2093): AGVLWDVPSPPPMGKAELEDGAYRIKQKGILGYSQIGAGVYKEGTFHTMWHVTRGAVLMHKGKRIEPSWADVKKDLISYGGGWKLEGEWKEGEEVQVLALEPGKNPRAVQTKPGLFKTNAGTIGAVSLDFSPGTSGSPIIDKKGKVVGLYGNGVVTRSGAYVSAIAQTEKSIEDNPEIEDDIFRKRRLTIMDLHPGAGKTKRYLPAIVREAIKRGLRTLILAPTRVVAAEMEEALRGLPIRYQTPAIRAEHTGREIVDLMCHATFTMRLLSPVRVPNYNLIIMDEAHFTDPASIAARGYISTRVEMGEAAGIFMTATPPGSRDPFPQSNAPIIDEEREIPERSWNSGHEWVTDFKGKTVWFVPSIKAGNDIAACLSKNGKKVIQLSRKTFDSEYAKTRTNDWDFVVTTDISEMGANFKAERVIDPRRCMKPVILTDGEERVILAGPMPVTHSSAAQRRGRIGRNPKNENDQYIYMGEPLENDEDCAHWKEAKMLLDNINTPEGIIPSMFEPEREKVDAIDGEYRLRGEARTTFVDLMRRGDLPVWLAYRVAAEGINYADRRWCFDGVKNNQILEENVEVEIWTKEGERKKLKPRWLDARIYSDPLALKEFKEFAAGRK
T2 sequence (P29990 1346-1475): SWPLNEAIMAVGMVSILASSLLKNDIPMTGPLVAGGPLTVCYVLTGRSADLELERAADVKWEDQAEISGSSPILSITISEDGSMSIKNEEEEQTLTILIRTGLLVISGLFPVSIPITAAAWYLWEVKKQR
T2 sequence (P29990 1476-1653): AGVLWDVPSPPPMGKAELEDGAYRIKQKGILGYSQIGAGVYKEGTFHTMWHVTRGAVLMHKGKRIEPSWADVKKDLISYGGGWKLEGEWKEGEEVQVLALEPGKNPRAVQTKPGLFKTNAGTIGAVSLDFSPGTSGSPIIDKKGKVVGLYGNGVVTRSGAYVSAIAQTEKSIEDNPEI

Row | Structure (SMILES) | SI (selectivity index, CC50/EC50 ratio) [1] | EC50 [1, 8] | CC50 at 3 days [2] | EC50 [3] | EC50 [4] | Clinical scores and body weight (DENV-induced pathology) [5, 9] | Survival rate [5, 9] | EC50 [1, 10] | EC50 [1, 11] | EC50 [6, 12] | EC50 [7, 13] | EC50 [1, 14] | EC50 ([6]; read-out: Cell-based EC50 ± SD (DENV-2 NS5 RdRp)) | Clinical scores and body weight (DENV-induced pathology) [5, 15] | Survival rate [5, 15] | EC50 ([7]; Enzyme-based EC50 ± SD (DENV-2 NS5 RdRp))
1 | COC(=O)c1[nH]c2ccc(Cl)cc2c1C(=O)c1cc(OC)c(O)c(OC)c1 [Compound 4, Methyl 5-chloro-3–(4-hydroxy-3,5-dimethoxybenzoyl)-1H-indole-2-carboxylate] | 39.3 | 4.6 ± 0.3 µM | 181 µM | 6.71 µM and 6.7 µM | 4.72 µM and 4.7 µM | reduced DENV-induced pathology | significantly protected the mice | – | – | – | – | – | – | – | – | –
2 | CCOC(=O)c1cnn(C)c1NS(=O)(=O)c1ccc(-n2cccc2C(=O)c2ccccc2)cc1 [Compound 2, Ethyl 5–(4-(2-benzoyl-1H-pyrrol-1-yl)phenylsulphonamido)-1-methyl-1H-pyrazole-4-carboxylate] | >26.3 | – | > 200 µM | – | – | – | – | 7.61 ± 0.36 µM | 7.6 ± 0.4 µM | 7.22 µM and 7.2 µM | 5.34 µM and 5.3 µM | – | – | – | – | –
3 | CCOC(=O)c1cnn(C)c1N(S(=O)(=O)c1ccc(Cl)cc1)S(=O)(=O)c1ccc(Cl)cc1 [Compound 1, Ethyl 5–(4-chloro-N-((4-chlorophenyl)sulphonyl)phenylsulphonamido)-1-methyl-1H-pyrazole-4-carboxylate] | 17.7 | – | 196 µM | – | – | – | – | 11.1 ± 0.21 µM | – | 8.07 µM and 8.1 µM | 7.78 µM and 7.8 µM | 11.7 ± 0.2 µM | – | – | – | –
4 | CCOC(=O)c1cnn(-c2ccccc2)c1N(S(=O)(=O)c1ccc([N+](=O)[O-])cc1)S(=O)(=O)c1ccc([N+](=O)[O-])cc1 [Compound 3, Ethyl 5–(4-nitro-N-((4-nitrophenyl)sulphonyl)phenylsulphonamido)-1-phenyl-1H-pyrazole-4-carboxylate] | >35.1 | – | > 200 µM | – | – | – | – | 5.66 ± 0.25 µM | 5.7 ± 0.3 µM | – | – | – | 5.99 µM and 6 µM | reduced DENV-induced pathology | significantly protected the mice | 4.87 µM and 4.9 µM
5 | COC(=O)c1[nH]c2ccc(Cl)cc2c1Cc1cc(OC)cc(OC)c1 [Compound 5, Methyl 5-chloro-3–(3,5-dimethoxybenzyl)-1H-indole-2-carboxylate] | > 27.4 | 7.28 ± 0.13 µM | > 200 µM | 7.92 µM and 7.9 µM | – | – | – | – | – | – | – | 7.3 ± 0.3 µM | – | – | – | –
